SMILES strings stand for the structures. Substitutions are numbered along the chain they refer to.

One assay has as its target T1, rP2 × 4R C132A mutant (Rattus norvegicus, UniProt P51577, C132A).
T1 construct: expressed in transfected cells; host or cells: Xenopus laevis oocytes
T1 sequence (P51577 1-388 C132A): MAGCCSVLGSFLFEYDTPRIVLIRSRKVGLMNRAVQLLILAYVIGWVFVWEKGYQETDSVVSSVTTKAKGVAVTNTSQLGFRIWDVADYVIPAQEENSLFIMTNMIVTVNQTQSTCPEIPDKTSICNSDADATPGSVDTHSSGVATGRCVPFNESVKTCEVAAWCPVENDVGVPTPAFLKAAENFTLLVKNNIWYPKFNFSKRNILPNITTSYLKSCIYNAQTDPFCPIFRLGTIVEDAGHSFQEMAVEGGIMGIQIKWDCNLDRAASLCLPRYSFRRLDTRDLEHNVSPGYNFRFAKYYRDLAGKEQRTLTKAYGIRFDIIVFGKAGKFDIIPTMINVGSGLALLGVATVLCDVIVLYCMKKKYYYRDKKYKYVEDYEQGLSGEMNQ
The experiment in a line: ATP concentration–response curves, voltage clamp, C132A mutant. In kind it is cell-based. To be noted: for EC50: ATP EC50, C132A.

The target in assay [1] is T2, rP2 × 4R C132T/C159T mutant (Rattus norvegicus, UniProt P51577, C132T/C159T).
T2 construct: expressed in transfected cells; host or cells: Xenopus laevis oocytes
T2 sequence (P51577 1-388 C132T/C159T): T1 sequence (P51577 1-388 C132A) with A132T, C159T
Briefly: ATP concentration–response curves, voltage clamp, C132T/C159T double mutant. In kind it is cell-based.

A further assay deals with T3, rP2 × 2R (Rattus norvegicus, UniProt P49653).
T3 sequence (P49653 1-472): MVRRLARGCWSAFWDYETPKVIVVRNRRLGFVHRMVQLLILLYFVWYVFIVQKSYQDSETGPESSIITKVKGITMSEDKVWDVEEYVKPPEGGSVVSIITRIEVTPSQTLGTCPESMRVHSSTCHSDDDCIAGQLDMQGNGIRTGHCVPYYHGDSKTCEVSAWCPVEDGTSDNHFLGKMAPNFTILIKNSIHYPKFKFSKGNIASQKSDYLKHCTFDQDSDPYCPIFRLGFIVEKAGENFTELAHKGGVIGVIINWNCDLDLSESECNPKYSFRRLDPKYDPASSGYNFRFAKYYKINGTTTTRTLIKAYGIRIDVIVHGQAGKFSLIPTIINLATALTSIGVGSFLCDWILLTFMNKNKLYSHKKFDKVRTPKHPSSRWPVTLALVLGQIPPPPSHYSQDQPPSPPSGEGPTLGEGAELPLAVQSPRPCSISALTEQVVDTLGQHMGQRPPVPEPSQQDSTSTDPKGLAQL
The note with it: NEM treatment + Zn(II) group; control before treatment (first ATP curve).

Another assay has as its target T4, rP2 × 4R E160Q mutant (Rattus norvegicus, UniProt P51577, E160Q).
T4 construct: host or cells: Xenopus laevis oocytes
T4 sequence (P51577 1-388 E160Q): T1 sequence (P51577 1-388 C132A) with A132C, E160Q
Briefly: ATP concentration–response curves, voltage clamp, E160Q mutant. The note with it: for EC50: ATP EC50, E160Q. In kind it is cell-based.

For assay [2], the target named is T5, rP2 × 4R C126A/C149A mutant (Rattus norvegicus, UniProt P51577, C126A/C149A).
T5 construct: host or cells: Xenopus laevis oocytes
T5 sequence (P51577 1-388 C126A/C149A): T1 sequence (P51577 1-388 C132A) with C126A, A132C, C149A
Briefly: ATP concentration–response curves, voltage clamp, C126A/C149A double mutant. The format is cell-based. The note with it: for EC50: ATP EC50, C126A/C149A.

The target in another assay is T6, rP2 × 4R C159T mutant (Rattus norvegicus, UniProt P51577, C159T).
T6 construct: expressed in transfected cells; host or cells: Xenopus laevis oocytes
T6 sequence (P51577 1-388 C159T): T1 sequence (P51577 1-388 C132A) with A132C, C159T
The experiment in a line: ATP concentration–response curves, voltage clamp, C159T mutant. In kind it is cell-based. The note with it: for EC50: ATP EC50, C159T.

For orientation: EC50 means the concentration at which the effect is half-maximal. Take `Nc1ncnc2c1ncn2[C@@H]1O[C@H](COP(=O)(O)OP(=O)(O)OP(=O)(O)O)[C@@H](O)[C@H]1O` [ATP, adenosine triphosphate]: the EC50 at rP2 × 4R C132A mutant (+10 µM Zn(II)) stood at 19.9 ± 13.4 µM; on rP2 × 4R C132A mutant (control), 10.2 ± 3.8 µM; in assay [1] (control) it was 27.4 ± 13.6 µM; at rP2 × 4R E160Q mutant (+10 µM Zn(II)) it was 25.9 ± 7.1 µM; on rP2 × 4R E160Q mutant (control) it was 23.8 ± 10.1 µM; in assay [2] (+10 µM Zn(II)), 10.1 ± 4.1 µM. Moreover, the EC50 came out at 22.9 ± 6.7 µM in assay [2] (control), 7 ± 2 µM on rP2 × 4R C159T mutant (+10 µM Zn(II)) and 37.3 ± 8.8 µM on rP2 × 4R C159T mutant (control). Further, the Imax in assay [1] (control) was found to be 3.2 ± 0.7 µA; on rP2 × 2R, 26.7 ± 3.5 µA.
Take `[Cl-].[Cl-].[Zn+2]` [Zn(II), zinc chloride (ZnCl2)]: the “Zn(II) modulation of the mutant” value is on record as “resistant to Zn(II) modulation” at rP2 × 4R C132A mutant (C132A, 10 µM Zn(II)) and “resistant to Zn(II) modulation” at rP2 × 4R E160Q mutant (E160Q, 10 µM Zn(II)). For the same molecule, the “fold ATP EC50 reduction by Zn(II)” value was found to be 5.5 fold in assay [1] (10 µM Zn(II)) and 5.32 fold on rP2 × 4R C159T mutant (C159T, 10 µM Zn(II)). Moreover, in assay [2] (C126A/C149A, 10 µM Zn(II)), the “fold decrease in ATP EC50 by Zn(II)” value came to 2.26 fold.

The values above are taken from publication PMC7555825, “New Insights of the Zn(II)-Induced P2 × 4R Positive Allosteric Modulation: Role of Head Receptor Domain SS2/SS3, E160 and D170” (International Journal of Molecular Sciences, 2020).
